Reference: patent US4192871A, “Chemical compounds” (Glaxo Laboratories Limited, priority 1976, dated 1980)

Experiments:
[1] = pH of the salt solutions; format: physicochemical
Protocol: (§1) A solution of the above free base (492 mg; 1 mmole) in ethanol (10 ml) was treated with a solution (10 ml) of M/10 citric acid in ethanol water (9:1) and the mixture evaporated in vacuo at low temperature to afford a froth.
(§2) Table 5 summarises the properties and preparation of salts of the invention by one of the following methods:
(§3) A. The 11β-aminoester (1 part) was added to a solution of the acid (1 molar part) in water and the mixture stirred or shaken until a clear solution was obtained. The solution was made up with water to the weight indicated, filtered through a membrane and the pH determined.
(§4) B. The 11β-aminoester (1 part) was added to a solution of the acid (1 molar part) in water and the mixture stirred or shaken. As free base remained undissolved, further acid was added and the mixture agitated again. The solution was made up with water to the weight indicated and any material which then remained undissolved was collected in a weighed funnel and the weight of free base dissolved calculated and the pH of the solution measured.
(§5) C. A mixture of the 11β-aminoester (1 part), a 0.1 M solution of the acid (1 molar part) and ethanol was evaporated in vacuo and dried to constant weight. The residue was dissolved in a little water and any material which then remained undissolved collected in a weighed funnel and the weight of free base dissolved calculated. The solution was made up with water to the weight indicated and its pH measured.
(§6) D. The 11β-aminoester (1 part) was added to a solution of the acid (1 molar part) in water and the mixture stirred or shaken. The solution was made up with water to the weight indicated. The material remaining undissolved was collected in a weighed funnel and the weight of free base dissolved calculated and the pH of the solution measured.
(§7) E. As in method C except that further acid was added to the residue after addition of the small amount of water.
11β-N,N-Diethylaminoacetoxy-2β-ethoxy-3α-hydroxy-5α-pregnan-20-one (1.45 g) was agitated with citric acid monohydrate (621 mg) in 0.9% w/v sodium chloride solution (steriflex^(R)) (130 ml.) at 20° for 16.5 hours. The resulting solution was stirred at 21° and N/5 sodium hydroxide solution in steriflex^(R) (10.5 ml) was added dropwise during 30 minutes, raising the pH from 3.63 to 4.52. The solution was diluted to 162.5 g so that the concentration of steroid was 9 mg/ml. The solution of the citrate was filtered through a membrane and finally filtered into 8 sterile ampoules.
11β-(N-Butyl-N-ethylaminoacetoxy)-3α-hydroxy-5α-pregnan-20-one (1.80 g) was agitated with citric acid monohydrate (793 mg) in 0.9% w/v sodium chloride solution (steriflex^(R)) (160 ml) at 20° for 19.5 hours. The resulting solution was slightly cloudy. This solution was stirred at 21° and N/5 sodium hydroxide solution in steriflex^(R) (5.8 ml) was added dropwise during 15 minutes, raising the pH from 3.62 to 4.00. The solution was diluted to 201.2 g so that the concentration of steroid was 9 mg/ml. The cloudiness was removed by filtration through a membrane and the clear solution of the citrate was filtered into 8 sterile ampoules.
Sodium iodide (0.250 g) and diethylamine (0.5 ml) were added to a solution of 11β-chloroacetoxy-2β-ethoxy-3α-hydroxy-D-homo-5α-pregnan-20-one (0.250 g) in acetone (10 ml) and the mixture was left at room temperature for 3 days during which time a white solid precipated. Water was added and the yellow solution was concentrated in vacuo whereupon crystallisation occurred. The needles were filtered off and washed well with acetone/water yielding the title compound (0.201 g), m.p. 160°-73°, [α]D +60.8°. The above base (0.101 g) was stirred with citric acid monohydrate (0.042 g) in water (9.5 ml) for 21 hours. The solution was made up to 10.1 g by weight. The solid remaining out of solution was filtered off, dried and weighed. The solution was passed through a millipore filter giving an aqueous solution of the title compound, concentration 9.75 mg/ml, pH 3.66. […]

[2] = dissolution of the 11β-aminoester salts in aqueous acid (Table 5 and Examples 101, 225-229); format: physicochemical
Protocol: as §1, §2, §3, §4, §5, §6, §7
The solid citric acid used was as its monohydrate.
Sodium iodide (0.250 g) and diethylamine (0.5 ml) were added to a solution of 11β-chloroacetoxy-2β-ethoxy-3α-hydroxy-D-homo-5α-pregnan-20-one (0.250 g) in acetone (10 ml) and the mixture was left at room temperature for 3 days during which time a white solid precipated. Water was added and the yellow solution was concentrated in vacuo whereupon crystallisation occurred. The needles were filtered off and washed well with acetone/water yielding the title compound (0.201 g), m.p. 160°-73°, [α]D +60.8°. The above base (0.101 g) was stirred with citric acid monohydrate (0.042 g) in water (9.5 ml) for 21 hours. The solution was made up to 10.1 g by weight. The solid remaining out of solution was filtered off, dried and weighed. The solution was passed through a millipore filter giving an aqueous solution of the title compound, concentration 9.75 mg/ml, pH 3.66.
The above base (0.096 g) was stirred in a solution of citric acid monohydrate (0.038 g) in water (8.5 ml) for 20 hours. A large proportion of the steroid remained out of solution. More citric acid (0.038 g) was added and the mixture stirred for a further 6 hours. The solution was made up to 9.6 g by weight and the solid remaining out of solution was filtered off, dried and weighed. The solution was passed through a millipore filter giving an aqueous solution of the title compound, concentration 9.5 mg/ml, pH 2.85.
To a solution of citric acid monohydrate (52.5 mg) in water (2 ml) was added the above free base (115 mg). More water (8 ml) was added and the mixture was stirred for 72 hrs. A small amount of steroid remained out of solution and more citric acid (52.5 mg) was added. Within 5 mins. a clear solution was obtained which was made up to 11.5 g with water and filtered through a millipore filter yielding an aqueous solution of the title citrate, concentration 10 mg/ml, pH 3.0.
The above free base (112 mg) was added to a solution of citric acid monohydrate (52.5 mg) in water (2 ml). More water (8 ml) was added and the mixture was swirled from time to time. […]

[3] = aqueous solution of the salt, Table 5
[4] = method C: ethanol evaporated, residue in water, undissolved material weighed, WT. of solution Ex. 118: 10, 120: 10.4, 148: 9.54, 152: 5.6, 154: 9.1, 155: 8.77, 156: 9.06, 157: 9.5, 158: 9.38, 159: 9.17, 179: 9.65, 180: 11.7, 182: 4.9, 202: 12.05, 213: 12, 214: 11.5, 215: 11.1, 216: 11.6, 217: 12.1 g
[5] = method E: as C with further acid, WT. of solution Ex. 160: 6.12, 161: 7.8, 203: 12.7, 212: 12.125, 220: 10 g
[6] = method B: further acid added, undissolved material weighed, WT. of solution 10 g, except Ex. 130 and 141: 9.2, 142: 9.23, 143, 144, 189 and 199: 9.8, 149: 10.6, 153: 7.9, 162 and 188: 9.5, 163: 68, 166: 10.4, 168: 10.7, 169: 10.9, 183: 8.05, 184 and 201: 9.83, 185: 7.1, 186: 9.3, 192: 10.07, 193: 6.4, 195: 6.8, 196: 7, 197: 7.2, 200: 10.1, 206: 15 g
[7] = method A: clear solution, 1 molar part acid, made up with water to WT. of solution 10 g, except Ex. 121 and 150: 12, 123: 12.3, 124: 7.5, 129: 10.3, 135 and 139: 8.95, 164: 10.35, 170: 10.4, 181: 10.04, 187: 9.5, 210: 10.2, 221: 15 g
[8] = method D: 1 molar part acid, undissolved material weighed, WT. of solution 10 g, except Ex. 136: 8.95, 140: 9.52, 165 and 167: 10.1, 190 and 198: 9.8, 191: 8.9, 194: 6.6, 204: 10.09, 219: 10.6 g
[9] = aqueous solution, pH adjusted with sodium hydroxide solution

Row | SMILES | pH [1, 3] | Dissolved aminoester [2, 6] | further results
1 | CC(=O)[C@H]1CC[C@H]2[C@@H]3CC[C@H]4C[C@H](O)CC[C@]4(C)[C@H]3[C@@H](OC(=O)CN3CCCCC3)C[C@]12C [Example 156] | 3.52 | – | Dissolved aminoester [2, 4]: 90.3 mg
2 | CC(=O)[C@H]1CC[C@H]2[C@@H]3CC[C@H]4C[C@H](O)CC[C@]4(C)[C@H]3[C@@H](OC(=O)CN3CCCC(C)C3)C[C@]12C (some centres unmarked) [Example 157] | 3.59 | – | Dissolved aminoester [2, 4]: 95 mg
3 | CC(=O)[C@H]1CC[C@H]2[C@@H]3CC[C@H]4C[C@H](O)CC[C@]4(C)[C@H]3[C@@H](OC(=O)CN3CCC(C)CC3)C[C@]12C [Example 158] | 3.60 | – | Dissolved aminoester [2, 4]: 93.8 mg
4 | CC(=O)[C@H]1CC[C@H]2[C@@H]3CC[C@H]4C[C@H](O)CC[C@]4(C)[C@H]3[C@@H](OC(=O)CN3CCCCCC3)C[C@]12C [Example 159] | 3.55 | – | Dissolved aminoester [2, 4]: 91.7 mg
5 | CC(=O)[C@H]1CC[C@H]2[C@@H]3CC[C@H]4C[C@H](O)CC[C@]4(C)[C@H]3[C@@H](OC(=O)CN3CC4CCC(CC4)C3)C[C@]12C [Example 160] | 2.6 | – | Dissolved aminoester [2, 5]: 80.6 mg
6 | CCCN(CCC)CC(=O)O[C@H]1C[C@]2(C)[C@@H](C(C)=O)CC[C@H]2[C@@H]2CC[C@H]3C[C@H](O)[C@@H](C)C[C@]3(C)[C@H]21 [Example 161] | 2.8 | – | Dissolved aminoester [2, 5]: 78 mg
7 | CC(=O)C1CCC2C3CCC4CC(O)CCC4(C)C3C(OC(=O)CNC(C)CC(C)C)CC12C (centres unmarked) [Example 162] | 3.0 | 86 mg | –
8 | CC(=O)C1CCC2C3CCC4CC(O)CCC4(C)C3C(OC(=O)CNC(C)CC(C)C)CC12C (centres unmarked) [Example 163] | 3.08 | 68 mg | –
9 | CCOC1CC2(C)C(CCC3C4CCC(C(C)=O)C4(C)CC(OC(=O)CN4CCC(C)CC4)C32)CC1O (centres unmarked) [Example 164] | 3.72 | – | Dissolved aminoester [2, 7]: 103.5 mg
10 | CCOC1CC2(C)C(CCC3C4CCC(C(C)=O)C4(C)CC(OC(=O)CNCCC(C)C)C32)CC1O (centres unmarked) [Example 165] | 3.68 | – | Dissolved aminoester [2, 8]: 76.5 mg
11 | CCOC1CC2(C)C(CCC3C4CCC(C(C)=O)C4(C)CC(OC(=O)CNC(C)CC(C)C)C32)CC1O (centres unmarked) [Example 166] | 3.28 | 104 mg | –
12 | CCN(CC)CC(=O)OC1CC2(C)C(C(C)=O)CCC2C2CCC3CC(O)C(OC(C)C)CC3(C)C12 (centres unmarked) [Example 167] | 3.65 | – | Dissolved aminoester [2, 8]: 93 mg
13 | CCCCOC1CC2(C)C(CCC3C4CCC(C(C)=O)C4(C)CC(OC(=O)CN(C)CCCC)C32)CC1O (centres unmarked) [Example 168] | 2.4 | 70.5 mg | –
14 | CCCCOC1CC2(C)C(CCC3C4CCC(C(C)=O)C4(C)CC(OC(=O)CN4CCC(C)CC4)C32)CC1O (centres unmarked) [Example 169] | 2.8 | 80.5 mg | –
15 | CCCCN(C)CC(=O)OC1CC2(C)C(C(C)=O)CCC2C2CCC3CC(O)C(OC(C)=O)CC3(C)C12 (centres unmarked) [Example 170] | 3.7 | – | Dissolved aminoester [2, 7]: 104 mg
16 | CCN(CC)CC(=O)O[C@H]1C[C@]2(C)[C@@H](C(C)=O)CC[C@H]2[C@@H]2C[C@@H](C)[C@H]3C[C@H](O)CC[C@]3(C)[C@H]21 [Example 171] | 3.4 | – | Dissolved aminoester [2, 7]: 100 mg
17 | CCN(CC)CC(=O)OC1CC2(C)C(C(=O)COC)CCC2C2CCC3CC(O)CCC3(C)C12 (centres unmarked) [Example 172] | 3.2 | – | Dissolved aminoester [2, 7]: 100 mg
18 | CCN(CC)CC(=O)OC1CC2(C)C(C(C)=O)CCC2C2CCC3CC(O)C(C)CC3(C)C12 (centres unmarked) [Example 173] | 2.82 | 78 mg | –
19 | CCCCN(CC)CC(=O)OC1CC2(C)C(C(C)=O)CCC2C2CCC3CC(O)C(C)CC3(C)C12 (centres unmarked) [Example 174] | 2.90 | 100 mg | –
20 | CC(=O)C1CCC2C3CCC4CC(O)C(C)CC4(C)C3C(OC(=O)CN3CCC(C)CC3)CC12C (centres unmarked) [Example 175] | 2.96 | 95 mg | –
21 | CCN(CC)CC(=O)OC1CC2(C)C(C(C)=O)CCC2C2CCC3CC(O)C(C)CC3(C)C12 (centres unmarked) [Example 176] | 3.7 | – | Dissolved aminoester [2, 7]: 103 mg
22 | CCCCN(C)CC(=O)OC1CC2(C)C(CC(C)C2C(C)=O)C2CCC3CC(O)CCC3(C)C12 (centres unmarked) [Example 177] | – | – | pH [1, 9]: 4.0; Dissolved aminoester [2, 7]: 100 mg
23 | CC(=O)C1C(C)CC2C3CCC4CC(O)CCC4(C)C3C(OC(=O)CN3CCC(C)CC3)CC21C (centres unmarked) [Example 178] | 3.6 | – | Dissolved aminoester [2, 7]: 100 mg
24 | CC(=O)[C@H]1CC[C@H]2[C@@H]3CC[C@H]4C[C@H](O)CC[C@]4(C)[C@H]3[C@@H](OC(=O)C(C)N3CCC(C)CC3)C[C@]12C (some centres unmarked) [Example 179] | – | – | pH [1, 9]: 3.66; Dissolved aminoester [2, 4]: 96.5 mg
25 | CC(=O)[C@H]1CC[C@H]2[C@@H]3CC[C@H]4C[C@H](O)CC[C@]4(C)[C@H]3[C@@H](OC(=O)C(C)N3CCCCC3)C[C@]12C (some centres unmarked) [Example 180] | 3.60 | – | Dissolved aminoester [2, 4]: 117 mg
